Consider one molecule from article PMC10826971, “Evaluating protein cross-linking as a therapeutic strategy to stabilize SOD1 variants in a mouse model of familial ALS” (PLOS Biology, 2024).

The nature of data set [1]: MTT cell viability/cytotoxicity assay. It is filed as cell-based. The following applies: human, Hep G2 cells. Here is the method:
The Hep G2 human hepatocarcinoma cell line (American Type Culture Collection, ATCC, Manassas, Virginia, USA) was cultured using EMEM (Eagle’s minimal essential medium, ATCC) supplemented with 10% FBS (fetal bovine serum, ATCC) and 1% penicillin streptomycin as previously described (10,000 units/mL penicillin and 10,000 μg/mL streptomycin, Fisher scientific, Hampton, New Hampshire, USA). The cells were grown and subcultured around 72 h at 37°C, 5% CO2 under controlled humidity. The cells growth and morphology were inspected using an inverted Carl Zeiss microscope (Carl Zeiss Microscopy LLC, White Plains, New York, USA).
Using manufacturer’s instructions, Hep G2 cells were cultured for 24 h with a density of 2 × 10^5 cells/mL in a 96-well culture plate at 37°C, 5% CO2 under controlled humidity. […] Cell cytotoxicity was performed via the MTT (3-(4,5-dimethylthiazol-2-yl)-2,5-diphenyltetrazolium bromide) assay at 570 nm absorbance using BioTek synergy H1 (Vermont, USA) plate reader according to previously published paper. The MTT stock was made at 5 mg/mL using 0.9% sodium chloride solution which was purchased from Sigma Aldrich (St. Louis, Missouri, USA). Twenty-four hours after dosing the plate, the cultured medium was aspirated and replaced with the equal volume of MTT solution (10× dilution using EMEM complete media). The plate was incubated for 4 h (37°C, 5% CO2). The MTT solution was replaced by the equal amount of acidified isopropanol (0.3% hydrochloric acid (v/v)) and then formed formazan was dissolved by shaking the plate gently for 30 min. The absorbance was measured at 570 nm for both the samples and acidified isopropanol for background calculation. Chlorpromazine and cells with 0.1% DMSO were used as positive control and vehicle, respectively. The cell viability of each concentration was measured by normalizing against mean value of cells with 0.1% DMSO (vehicle).

A short description of data set [2]: Relative cell viability of transfected NSC-34 cells. Format: cell-based, mouse. The settings on record: mouse, 48 h, replicates. As for the experimental part: (§1) Transfected NSC-34 cells were plated out into 96-well plates and left overnight. […] Cells were then fixed using 4% (w/v) paraformaldehyde in 1×PBS for 20 min. Plates for imaging were then processed as previously described with some changes. Cells were imaged using a DMi8 epifluorescent microscope (Leica, Germany) fitted with a Mercury Arc Lamp, a 10× 0.25NA (CAT NO) air objective and an automated stage. A software-based autofocus strategy was utilized to focus on the GFP signal within cells, with a subsequent image being taken in the DAPI channel to view Hoescht-stained nuclei. Relative focus correction was applied between channels to offset emission wavelength effects to the focal plane. Following image acquisition, images were corrected for illumination variation via a background method and processed using a combination of FIJI [66], StarDist, CellProfiler, and CellProfiler Analyst as previously described.
(§2) Image set data taken from the previous inclusion formation assay were used to examine both relative cell viability and relative levels of SOD1-EGFP. To determine relative viability, we extracted the total number of transfected cells in each treatment group and normalized the values to the untreated group to determine the relative number of cells at assay endpoint.

The subject of data set [3] is NSC-34 cells expressing EGFP-G93A. Described as above. Format: cell-based, mouse. The following applies: for Viability %: G93A, 48 h, replicates. Here is the method:
as §1, §2

Data set [4] deals with NSC-34 cells expressing EGFP-WT-SOD1. Described as above. Format: cell-based, mouse. The settings on record: for Viability %: WT, 48 h, replicates. As for the experimental part: as §1, §2
The test system of the next data set is B6SJL G93A mice. In words: Survival study, hybrid B6SJL G93A mice, S-XL6 SC 20 then 50 mg/kg once a day Monday to Friday. It is filed as in vivo, mouse. The text has this: Two fALS lines were used to assess survival in genetic backgrounds with different disease severity. […] Dose and dose regimen were estimated from the blood PK/PD profile and BBB penetration described above. A subcutaneous (SC) route of administration was chosen because in our hands it results in more precise delivery. […] In both studies, mice were gender and littermate matched and non ALS-related deaths were excluded. We are currently developing the methods necessary for quantifying copy number and cannot rule out reduced SOD1 expression as having contributed to the survival benefit in treated B6 G93A mice.
The first line was derived by crossing (over >10 generations) congenic fALS “B6 G93A mice” (B6.Cg-Tg(SOD1*G93A)1Gur/J, Stock No. 004435, The Jackson Laboratory, Bar Harbor, Maine, USA) with “YFP-16 mice” [50] (B6.Cg-Tg(Thy1-YFP)16Jrs/J, Stock No. 003709, The Jackson Laboratory, Bar Harbor, Maine, USA). This line maintains the C57BL/6J genetic background and expresses YFP in motor and sensory neurons to enable cellular-level molecular profiling in future studies. The second line is the standard “Hybrid B6SJL G93A mice” (B6SJL-Tg(SOD1*G93A)1Gur/J Stock No. 002726, The Jackson Laboratory, Bar Harbor, Maine, USA). Methods for survival studies have been described and followed the conventions for optimal trial design with fALS mice. Mice were tested for difference in: (1) disease onset (at least a 20% decrease in grip strength and open-field motor performance, which we expect to correlate with change in weight); (2) disease end-stage (disease score, e.g., loss of righting reflex); and (3) weight. The hybrid line was additionally tested for differences in forelimb and hindlimb grip strength.

Each structure is given as a SMILES string. Several values for one entry are separate records, joined by “and”; a condition that tells them apart may be missing. Equal values may be shown once. Entries after “also recorded” stand apart in the source; their conditions may differ.

As to `[O-][S+]1CCCCS1` (stereo not drawn) [S-XL6, 1,2-dithiane-1-oxide], the viability at 24 h, 10 µM in data set [1] (10 µM, read-out: viable cells compared to vehicle control (MTT)) was 125%. In data set [1] (100 µM, read-out: viable cells compared to vehicle control (MTT)), the viability at 24 h, 100 µM came to 102%. Also, the viability at 24 h, 150 µM in data set [1] (150 µM, read-out: viable cells compared to vehicle control (MTT)) was 90%. Also, the viability at 24 h, 250 µM in data set [1] (250 µM, read-out: viable cells compared to vehicle control (MTT)) is 79%. The viability at 24 h, 400 µM in data set [1] (400 µM, read-out: viable cells compared to vehicle control (MTT)) was determined as 72%. For the same molecule, in data set [1] (600 µM, read-out: viable cells compared to vehicle control (MTT)), the viability at 24 h, 600 µM came to 15%. Moreover, the viability at 24 h, 800 µM in data set [1] (800 µM, read-out: viable cells compared to vehicle control (MTT)) turned out to be 14%. Further, the viability at 24 h, 1000 µM in data set [1] (1000 µM, read-out: viable cells compared to vehicle control (MTT)) came out at 14%. Besides, in data set [1] (MTT, read-out: Cytotoxicity LC50), the CC50 at 24 h was ~446 µM. Moreover, in data set [2] (NSC-34 cells expressing EGFP-G93A, G93A, 5 uM), the viability at 48 h, 5 µM is 96%. Besides, the viability at 48 h, 10 µM in data set [2] (NSC-34 cells expressing EGFP-G93A, G93A, 10 uM) is 97.2%. Besides, the viability at 48 h, 20 µM in data set [2] (NSC-34 cells expressing EGFP-G93A, G93A) was found to be 83%; in data set [2] (NSC-34 cells expressing EGFP-WT-SOD1, WT), 109%. The “survival/viability of cells expressing EGFP-labeled G93A” value in data set [3] is reported as “did not affect”. Further, the Viability % in data set [3] (5 uM) is 106.323% and 98.5697% and 106.015% and 108.827%; in data set [3] (10 uM), 107.355% and 99.404% and 108.897% and 105.562%; in data set [3] (20 uM), 94.1936% and 84.8629% and 91.604% and 88.2709%; in data set [4] (5 uM), 118.019% and 98.8542% and 94.2887% and 103.364% and 96.0765%; in data set [4] (10 uM) it was 120.286% and 102.188% and 99.0654% and 102.243% and 98.2897%; in data set [4] (20 uM) it was 91.25% and 91.5888% and 93.8838% and 89.0342%. Moreover, the “viability of cells expressing EGFP-labeled wild-type SOD1” value in data set [4] is recorded as “did not affect the viability”. In addition, the survival benefit result with B6SJL G93A mice (50 mg/kg SC once a day, Monday to Friday, from day 70) was “no survival benefit; also recorded: No survival improvement”. The “Age (wks)” value with B6SJL G93A mice (individual mice, Tx D (dosed), age at end-stage, found dead or sacrifice) is 17.7143 wks and 17.5714 wks and 17.8571 wks and 15.5714 wks and 18.7143 wks and 17.4286 wks and 16.1429 wks and 18 wks and 15.8571 wks and 17.1429 wks. In addition, in the data set on B6SJL G93A mice (individual mice, Tx D (dosed), age at end-stage, found dead or sacrifice (131-day mice sac'd for tissue)), the “Age” value was 124 days and 123 days and 125 days and 109 days and 131 days and 122 days and 113 days and 126 days and 111 days and 120 days.
